Tests used:
3T3-L1 adipocytes [1] = experiment: Lipolysis: free fatty acid release in differentiated adipocytes (BioVision Free Fatty Acid Quantification Kit); type: cell-based, murine; conditions: 100 μg/ml, overnight; for free fatty acids production in adipocytes relative to known lipolysis inducers (FIG. 4): compared with carnitine, resveratrol, isoproterenol, aminophylline, theophylline, caffeine
Procedure: The degree of fatty acid release can be used to gauge the relative level of glycerol release given this correlation. The following methods were used to determine the effect of 4-methyl-2-(octanoylamino) pentanoic acid and N-isopentyloctanamide on lipolysis in adipocytes.
(§1) The induction of lipolysis in differentiated adipocytes was determined in 3T3-L1 adipocytes using a fatty acid assay kit manufactured by BioVision (Mountain View, Calif.) (Free Fatty Acid Quantification Kit, Cat. No. K612-100). Free fatty acid release correlates with an increase in the level of glycerol. Adipocytes for these assays were prepared as follows. 3T3-L1 murine pre-adipocytes were purchased from the American Type Culture Collection (ATCC) (CL-173™). The cells were cultured in complete medium (ATCC-formulated Dulbecco's Modified Eagle's Medium supplemented with 10% bovine calf serum) and allowed to reach 100% confluence. The induction of differentiation or adipogenesis was carried out in complete medium. On day 0, cells were treated with complete medium containing induction agents (100 μg/ml isobutylmethyxanthine (Sigma, St. Louis, Mo.), 5 μg/ml insulin and 2 μg/ml dexamethasone). On day 3, cells were changed to complete medium containing 5 μg/ml insulin and incubated for 2-3 days. Then, cells were maintained in complete medium for 3-6 days when the majority of cells developed observable intracellular lipid droplets.
For analyzing the effects of 4-methyl-2-(octanoylamino) pentanoic acid and N-isopentyloctanamide on lipolysis, cells (adipocytes prepared above) were treated with either of these compounds at 100 μg/ml. Alternatively, cells were treated overnight with certain substances (e.g., resveratrol, isoproterenol, aminophylline, theophylline) (100 μg/ml) previously known to be lipolysis inducers. Supernatant from each of the cultures was measured for relative glycerol release as estimated using the free fatty acid quantification kit from BioVision following the manufacturer's instructions.

EpiDerm™ Skin Model = experiment: EpiDerm MTT assay for cytotoxicity toward skin tissue; type: cell-based; conditions: for cell viability (OD570) compared to the glycerin vehicle: 100 μg/ml, 2, 5 and 18 hour incubation (FIG. 7); for toxicity to skin tissue: 1 mg/ml for 24 hours (data not shown)
3T3-L1 adipocytes [2] = experiment: Cytotoxicity to adipocytes at the concentrations used to stimulate lipolysis; type: cell-based, murine; conditions: at the concentrations used to stimulate lipolysis (data not shown)
Description: Both HB2031 and HB2032 were not cytotoxic to 3T3-L1 adipocytes at the concentrations used to simulate lipolysis (data not shown).

3T3-L1 preadipocytes = experiment: Adipogenesis assay, Oil red O staining of lipid droplets (Cayman Adipogenesis Assay Kit); type: cell-based, murine
Procedure: as §1
Intracellular lipid droplet production in adipocytes is a feature of adipogenesis. Therefore, adipogenesis was monitored by staining for lipid droplets in cells using the Adipogenesis Assay Kit from Cayman (Ann Arbor, Mich.) following the manufacture's instructions. […]

SMILES | free fatty acids production compared with isoproterenol, assay in triplicate (FIG. 5) (3T3-L1 adipocytes [1]) | free fatty acids production in adipocytes relative to known lipolysis inducers (FIG. 4) (3T3-L1 adipocytes [1]) | cell viability (OD570) compared to the glycerin vehicle (EpiDerm™ Skin Model) | toxicity to skin tissue (EpiDerm™ Skin Model) | cytotoxicity to 3T3-L1 adipocytes (3T3-L1 adipocytes [2]) | differentiation of cells into adipocytes (enlarged cells, intracellular lipid droplets) (3T3-L1 preadipocytes; 100, 150, 200 μg/ml with adipogenesis inducers for nine days, concentration dependent (FIG. 6C-E)) | intensity of cellular lipid formation (Oil red O staining) (3T3-L1 preadipocytes; low concentration (FIG. 6C, 100 μg/ml), nine days)
CCCCCCCC(=O)NC(CC(C)C)C(=O)O (stereo not drawn) [HB2031, 4-methyl-2-(octanoylamino) pentanoic acid] | significantly more active than isoproterenol | to a higher degree than all the other compounds tested | no difference in cell viability | no toxicity | not cytotoxic |  | 
CCCCCCCC(=O)NCCC(C)C [HB2032, N-isopentyloctanamide] | significantly more active than isoproterenol | to a higher degree than all the other compounds tested | no difference in cell viability | no toxicity | not cytotoxic | inhibited the differentiation of cells into adipocytes | significantly reduced

Source: US9511042B2, “N-acyl amino acid derivatives for treating skin conditions such as cellulite” (HELIX BIOMEDIX INC., priority 2010, dated 2016)
